Assay results taken from PubChem BioAssay (NCI).
Where “and” joins values, the source holds several entries; their conditions need not be identical. Identical values can stand only once.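 Protocol summary: plate cells (96-well), add compound at 5 concentrations, incubate 48 h, interpolate endpoints linearly. GI50 marks 50% less growth. Definition used: TGI = concentration required for complete inhibition of growth.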

Legend:
Assay in all cases: growth of human tumour cells (NCI), 48 h
[1] = test system: 786-0 renal
[2] = test system: A498 renal
[3] = test system: A549 NSCLC
[4] = test system: ACHN renal
[5] = test system: BT-549 breast
[6] = test system: CAKI-1 renal
[7] = test system: CCRF-CEM leukemia
[8] = test system: COLO 205 colon
[9] = test system: DU-145 prostate
[10] = test system: EKVX NSCLC
[11] = test system: HCC-2998 colon
[12] = test system: HCT-116 colon
[13] = test system: HCT-15 colon
[14] = test system: HL-60(TB) leukemia
[15] = test system: HOP-62 NSCLC
[16] = test system: HOP-92 NSCLC
[17] = test system: HS 578T breast
[18] = test system: HT29 colon
[19] = test system: IGROV1 ovarian
[20] = test system: K-562 leukemia
[21] = test system: KM12 colon
[22] = test system: LOX IMVI melanoma
[23] = test system: M14 melanoma
[24] = test system: MALME-3M melanoma
[25] = test system: MCF7 breast
[26] = test system: MDA-MB-231 breast
[27] = test system: MDA-MB-435
[28] = test system: MDA-N
[29] = test system: MOLT-4 leukemia
[30] = test system: NCI-H226 lung
[31] = test system: NCI-H23 lung
[32] = test system: NCI-H460 lung
[33] = test system: NCI-H522 lung
[34] = test system: NCI/ADR-RES ovarian
[35] = test system: OVCAR-3 ovarian
[36] = test system: OVCAR-4 ovarian
[37] = test system: OVCAR-5 ovarian
[38] = test system: OVCAR-8 ovarian
[39] = test system: PC-3 prostate
[40] = test system: RPMI-8226 leukemia
[41] = test system: RXF 393 renal
[42] = test system: SF-268 CNS
[43] = test system: SF-295 CNS
[44] = test system: SF-539 CNS
[45] = test system: SK-MEL-2 melanoma
[46] = test system: SK-MEL-28 melanoma
[47] = test system: SK-MEL-5 melanoma
[48] = test system: SK-OV-3 ovarian
[49] = test system: SN12C renal
[50] = test system: SNB-19 CNS
[51] = test system: SNB-75 CNS
[52] = test system: SR leukemia
[53] = test system: SW-620 colon
[54] = test system: T-47D breast
[55] = test system: TK-10 renal
[56] = test system: U251 CNS
[57] = test system: UACC-257 melanoma
[58] = test system: UACC-62 melanoma
[59] = test system: UO-31 renal
[60] = test system: KM20L2 colon
[61] = test system: LXFL 529 NSCLC
[62] = test system: SNB-78 CNS

## N#Cc1cnc(N)nc1NCC1(CO)CC(CCc2ccccc2)C1 (configuration not stated)
[1]
  TGI: > 100 µM
[2]
  TGI: > 100 µM
[3]
  TGI: > 100 µM
[4]
  TGI: > 100 µM
[5]
  TGI: > 100 µM
[6]
  TGI: > 100 µM
[7]
  TGI: > 100 µM
[8]
  TGI: > 100 µM
[9]
  TGI: > 100 µM
[10]
  TGI: > 100 µM
[11]
  TGI: > 100 µM
[12]
  TGI: > 100 µM
[13]
  TGI: > 100 µM
[14]
  TGI: > 100 µM
[15]
  TGI: > 100 µM
[16]
  TGI: > 100 µM
[17]
  TGI: > 100 µM
[18]
  TGI: > 100 µM
[19]
  TGI: > 100 µM
[20]
  TGI: > 100 µM
[21]
  TGI: > 100 µM
[22]
  TGI: > 100 µM
[23]
  TGI: > 100 µM
[24]
  TGI: > 100 µM
[25]
  TGI: > 100 µM
[26]
  TGI: > 100 µM
[27]
  TGI: > 100 µM
[28]
  TGI: > 100 µM
[29]
  TGI: > 100 µM
[30]
  TGI: > 100 µM
[31]
  TGI: > 100 µM
[32]
  TGI: > 100 µM
[33]
  TGI: > 100 µM
[34]
  TGI: > 100 µM
[35]
  TGI: > 100 µM
[36]
  TGI: > 100 µM
[37]
  TGI: > 100 µM
[38]
  TGI: > 100 µM
[39]
  TGI: > 100 µM
[40]
  TGI: > 100 µM
[41]
  TGI: > 100 µM
[42]
  TGI: > 100 µM
[43]
  TGI: > 100 µM
[44]
  TGI: > 100 µM
[45]
  TGI: > 100 µM
[46]
  TGI: > 100 µM
[47]
  TGI: > 100 µM
[48]
  TGI: > 100 µM
[49]
  TGI: > 100 µM
[50]
  TGI: > 100 µM
[51]
  TGI: > 83.1 µM
[52]
  TGI: > 100 µM
[53]
  TGI: > 100 µM
[54]
  TGI: > 20.5 µM
[55]
  TGI: > 100 µM
[56]
  TGI: > 100 µM
[57]
  TGI: > 100 µM
[58]
  TGI: > 100 µM
[59]
  TGI: > 100 µM

## CCCCCCCCCCCCC(O)[C@H]1CC[C@H](C(O)CCCCCC(=O)CCCCC2CC(C(C)=O)C(=O)O2)O1 (some centres not stated)
[1]
  TGI: 52.1 µM
[2]
  GI50: 2.62 µM
  TGI: 36.6 µM
[3]
  GI50: 2.33 µM
  TGI: > 100 µM
[4]
  GI50: 1.68 µM
  TGI: 70.4 µM
[5]
  TGI: 59.5 µM
[6]
  TGI: 50.3 µM
[7]
  GI50: 2.15 µM
  TGI: > 45.6 µM
[8]
  GI50: 2.16 µM
  TGI: > 57.8 µM
[9]
  TGI: > 100 µM
[10]
  GI50: 3.24 µM
  TGI: 54.8 µM
[11]
  TGI: 32.1 µM
[12]
  GI50: 7.23 µM
  TGI: 36 µM
[13]
  GI50: 6.51 µM
  TGI: > 70.9 µM
[14]
  GI50: 2.68 µM
  TGI: > 29.5 µM
[15]
  TGI: 26.6 µM
[16]
  GI50: 3.23 µM
  TGI: 31.7 µM
[17]
  GI50: 4.42 µM
  TGI: 51.2 µM
[18]
  GI50: 2.96 µM
  TGI: > 53.5 µM
[19]
  GI50: 4.3 µM
  TGI: 71.6 µM
[20]
  GI50: 1.91 µM
  TGI: > 63.6 µM
[21]
  GI50: 4.2 µM
  TGI: 24.3 µM
[22]
  GI50: 1.87 µM
  TGI: 21.6 µM
[23]
  GI50: 6.01 µM
  TGI: 26.2 µM
[24]
  TGI: 23.7 µM
[25]
  GI50: 1.38 µM
  TGI: > 51.6 µM
[26]
  GI50: 2.8 µM
  TGI: 44.6 µM
[27]
  GI50: 1.92 µM
  TGI: 35.6 µM
[28]
  GI50: 7.67 µM
  TGI: 23.2 µM
[29]
  GI50: 2.81 µM and 2.14 µM
  TGI: 23.4 µM
[30]
  GI50: 3.48 µM
  TGI: 46.1 µM
[31]
  GI50: 1.72 µM
  TGI: 63.8 µM
[32]
  GI50: 9.67 µM
  TGI: 22.5 µM
[33]
  TGI: 25.6 µM
[34]
  GI50: 1.87 µM
  TGI: 40.4 µM
[35]
  GI50: 2.25 µM
  TGI: 19.3 µM
[36]
  TGI: 39.4 µM
[37]
  TGI: 50 µM
[38]
  GI50: 4.34 µM
  TGI: > 53.9 µM
[39]
  GI50: 3.55 µM
  TGI: 28.1 µM
[40]
  GI50: 2.12 µM
  TGI: > 27.8 µM
[41]
  TGI: 22.2 µM
[42]
  GI50: 3.43 µM
  TGI: 53.4 µM
[43]
  GI50: 2.7 µM
  TGI: 37.6 µM
[44]
  TGI: 35.6 µM
[45]
  TGI: 28.3 µM
[46]
  GI50: 4.06 µM
  TGI: 66.2 µM
[47]
  GI50: 1.11 µM
  TGI: 4.97 µM and 20.4 µM
[48]
  TGI: 28 µM
[49]
  GI50: 12.9 µM
  TGI: 29 µM
[50]
  GI50: 4.56 µM
  TGI: 73.9 µM
[51]
  GI50: 7.11 µM
  TGI: 59.3 µM
[52]
  GI50: 1.76 µM
  TGI: > 38.1 µM
[53]
  GI50: 4.08 µM
  TGI: > 100 µM
[54]
  GI50: 3.84 µM
  TGI: > 41.5 µM
[55]
  TGI: > 68.6 µM
[56]
  GI50: 3.99 µM
  TGI: > 62.5 µM
[57]
  GI50: 1.3 µM
  TGI: 19.1 µM
[58]
  GI50: 3.84 µM
  TGI: 21.6 µM
[59]
  TGI: 26.9 µM

## O=C(Nc1ccc([N+](=O)[O-])cc1Cl)c1cccc([N+](=O)[O-])c1O
[2]
  TGI: 3.66 µM
[3]
  TGI: 7.31 µM
[4]
  TGI: 48.1 µM
[6]
  TGI: 5.21 µM
[7]
  TGI: > 100 µM
[10]
  TGI: 6.54 µM
[11]
  TGI: 20.9 µM
[14]
  TGI: 5.43 µM
[18]
  TGI: 79.7 µM
[20]
  TGI: 12.5 µM
[21]
  TGI: 15.3 µM
[60]
  TGI: 10.2 µM
[22]
  TGI: 14.5 µM
[61]
  TGI: 13.6 µM
[24]
  TGI: 4.73 µM
[29]
  TGI: 28.3 µM
[30]
  TGI: 9.31 µM
[31]
  TGI: 4.01 µM
[32]
  TGI: 13.3 µM
[33]
  TGI: 4.32 µM
[36]
  TGI: 45.3 µM
[37]
  TGI: > 100 µM
[40]
  TGI: 5.78 µM
[42]
  TGI: 27.3 µM
[43]
  TGI: 6.26 µM
[44]
  TGI: 10.9 µM
[45]
  TGI: 6.1 µM
[46]
  TGI: 19.4 µM
[49]
  TGI: 8.09 µM
[50]
  TGI: > 100 µM
[62]
  TGI: 9.75 µM
[52]
  TGI: 18.9 µM
[53]
  TGI: > 100 µM
[56]
  TGI: > 100 µM
[57]
  TGI: 6.95 µM
[59]
  TGI: 5.58 µM
